Test system: zinc finger protein metallothionein (MT)
Experiment: Zinc-finger disruption assay (zinc release from metallothionein, PAR absorbance at 500 nm)
Assay type: biochemical
Experimental: Biochem. Biophys. 287:175-179, 1991; and Fliss, H.; Ménard, M., “Oxidant-induced mobilization of zinc from metallothionein” Arch. Biochem. Biophys. 293:195-199, 1991. Briefly, the assay is conducted as follows. The assay is performed in a cuvet containing the zinc finger protein metallothionein (MT), and the metallochromic indicator 4-(2-pyridylazo)resorcinol (PAR).

OCl [hypochlorous acid]
release of zinc in the zinc-finger assay (PAR absorbance) (100 μmol/L): rapid

NCl [monochloramine]
zinc-finger disruption (PAR absorbance) (25 μmol/L): increase in PAR absorbance

N[C@@H](Cc1ccccc1)C(=O)O [phenylalanine]
release of zinc in the zinc-finger assay (PAR absorbance) (500 μmol/L): negligible

Source: US20080317780A1, “VIRAL VACCINE AND METHOD FOR PREPARATION THEREOF” (NATIONAL RESEARCH COUNCIL OF CANADA, priority 2006, published 2008)
